Results taken from US10227357B2, “Compounds and methods for kinase modulation, and indications therefor” (Plexxikon Inc., priority 2012, dated 2019).

biological target: T1, c-kit kinase (Homo sapiens, UniProt P10721); assay: c-Kit biochemical assay, AlphaScreen, 10 μM ATP; settings: c-kit biochemical inhibitory activity; read-out: Biochemical activity (IC50 μM) Kit
T1 construct: The c-kit (or kinase domain thereof) is an active kinase in AlphaScreen; poly-Histidine tag (in-house protein only) (cleaved yes); host or cells: E. coli BL21(DE3)RIL, co-expressed with PTP1B
Protocol: IC50 values are determined with respect to inhibition of c-Kit kinase activity, where inhibition of phosphorylation of a peptide substrate is measured as a function of compound concentration. Compounds to be tested were dissolved in DMSO to a concentration of 20 mM. These were diluted 30 μl into 120 μl of DMSO (4 mM) and 1 μl was added to an assay plate. These were then serially diluted 1:3 (50 μl to 100 μl DMSO) for a total of 8 points. Plates were prepared such that each kinase reaction is 20 μl in 1× kinase buffer (50 mM HEPES, pH 7.2, 5 mM MgCl2, 5 mM MnCl2, 0.01% NP-40, 0.2% BSA), 5% DMSO and 10 μM ATP. […] C-kit kinase was at 0.1 ng per sample. After incubation of the kinase reaction for 1 hour at room temperature, 5 μl of donor beads (Streptavidin coated beads (Perkin Elmer Life Science) final concentration 1 μg/ml) in stop buffer (50 mM EDTA in 1× kinase buffer) was added, the sample was mixed and incubated for 20 minutes at room temperature before adding 5 μl of acceptor beads (PY20 coated beads (Perkin Elmer Life Science) final concentration 1 μg/ml) in stop buffer. The samples were incubated for 60 minutes at room temperature and the signal per well was read on AlphaQuest reader. […] The signal vs. compound concentration was used to determine the IC50.
Complementary DNA cloned from various human tissues were purchased from Invitrogen, and these were used as substrates in the PCR reactions. Specific custom synthetic oligonucleotide primers were designed to initiate the PCR product, and also to provide the appropriate restriction enzyme cleavage sites for ligation with the plasmids. The entire sequence encoding the enzyme was made through a gene synthesis procedure, using custom synthetic oligonucleotides covering the entire coding sequence (Invitrogen, see below).
The plasmid used for ligation with the kinase-encoding inserts was derivative of pET (Novagen) for expression using E. coli. The Kit kinase was engineered to include a Histidine tag for purification using metal affinity chromatography. The kinase-encoding plasmid was engineered as bicistronic mRNA to co-express a second protein that modifies the kinase protein during its expression in the host cell. Protein tyrosine phosphatase 1B (PTP), was co-expressed for dephosphorylation of the phospho-Tyrosines.
For protein expression, the plasmid containing the Kit gene was transformed into E. coli strains BL21(DE3)RIL and transformants selected for growth on LB agar plates containing appropriate antibiotics. Single colonies were grown overnight at 37° C. in 200 ml TB (Terrific broth) media. 16×1 L of fresh TB media in 2.8 L flasks were inoculated with 10 ml of overnight culture and grown with constant shaking at 37° C. Once cultures reached an absorbance of 1.0 at 600 nm, IPTG was added and cultures were allowed to grow for a further 12 to 18 hrs at temperatures ranging from 12-30° C. Cells were harvested by centrifugation and pellets frozen at […] until ready for lysis.
For protein Purification; frozen E. coli cell pellets were resuspended in lysis buffer and lysed using standard mechanical methods. Protein was purified via poly-Histidine tags using immobilized metal affinity purification IMAC. The Kit kinase was purified using a 3 step purification process utilizing; IMAC, size exclusion chromatography and ion exchange chromatography. The poly-Histidine tag was removed using Thrombin (Calbiochem).

T1 sequence (P10721 26-976): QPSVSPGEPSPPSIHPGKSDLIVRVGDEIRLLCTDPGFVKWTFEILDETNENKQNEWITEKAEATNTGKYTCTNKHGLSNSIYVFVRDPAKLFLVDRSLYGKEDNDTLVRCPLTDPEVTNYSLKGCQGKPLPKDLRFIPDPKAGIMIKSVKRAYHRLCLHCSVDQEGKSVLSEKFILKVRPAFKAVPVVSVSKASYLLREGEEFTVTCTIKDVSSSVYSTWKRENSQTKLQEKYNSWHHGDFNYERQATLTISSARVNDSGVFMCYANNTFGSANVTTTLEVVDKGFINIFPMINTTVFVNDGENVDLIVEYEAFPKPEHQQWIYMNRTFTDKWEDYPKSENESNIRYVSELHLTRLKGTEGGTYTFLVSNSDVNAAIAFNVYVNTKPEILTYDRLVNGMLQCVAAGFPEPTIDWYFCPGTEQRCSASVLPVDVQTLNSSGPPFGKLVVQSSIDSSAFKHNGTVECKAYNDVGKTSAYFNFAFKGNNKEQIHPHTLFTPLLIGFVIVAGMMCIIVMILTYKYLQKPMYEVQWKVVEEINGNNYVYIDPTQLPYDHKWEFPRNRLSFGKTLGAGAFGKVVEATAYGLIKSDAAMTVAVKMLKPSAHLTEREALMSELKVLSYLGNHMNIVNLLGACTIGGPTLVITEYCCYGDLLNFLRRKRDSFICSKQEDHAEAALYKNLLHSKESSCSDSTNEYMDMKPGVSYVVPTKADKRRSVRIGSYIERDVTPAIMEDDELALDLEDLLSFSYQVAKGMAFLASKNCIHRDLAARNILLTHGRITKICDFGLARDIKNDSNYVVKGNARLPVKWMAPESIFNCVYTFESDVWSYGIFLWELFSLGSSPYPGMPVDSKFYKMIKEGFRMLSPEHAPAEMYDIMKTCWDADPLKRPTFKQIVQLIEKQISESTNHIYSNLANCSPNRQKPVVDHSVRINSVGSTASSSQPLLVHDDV

Compared with `CS(=O)(=O)c1ccc(-c2ncnc3[nH]c(-c4ccc(F)cc4)cc23)cc1` [P-0391, 6-(4-fluorophenyl)-4-(4-methylsulfonylphenyl)-7H-pyrrolo[2,3-d]pyrimidine], `CS(=O)(=O)Nc1cc(F)c(-c2ncnc3[nH]c(-c4ccc(F)cc4)cc23)cc1F` [P-0356, N-[2,5-difluoro-4-[6-(4-fluorophenyl)-7H-pyrrolo[2,3-d]pyrimidin-4-yl]phenyl]methanesulfonamide] is lower in IC50: 1 to 10 µM for the first, 0.0001 to 1 µM for the second. The second is the more potent here.

`C[C@H](NC(=O)N1CCN(c2ncnc3[nH]c(-c4ccc(F)cc4)cc23)CC1)c1ccc(Cl)cc1` [P-0178, N-[(1S)-1-(4-chlorophenyl)ethyl]-4-[6-(4-fluorophenyl)-7H-pyrrolo[2,3-d]pyrimidin-4-yl]piperazine-1-carboxamide] and `O=C(c1ccc(Cl)cc1)c1cc2c(N3CCN(C(=O)NCc4ccc(F)cc4)CC3)ncnc2[nH]1` [P-0207, 4-[6-(4-chlorobenzoyl)-7H-pyrrolo[2,3-d]pyrimidin-4-yl]-N-[(4-fluorophenyl)methyl]piperazine-1-carboxamide] fall in the same range of IC50: 10 to 200 µM for the first, 10 to 200 µM for the second.

`CCCNC(=O)N1CCN(c2ncnc3[nH]ccc23)CC1` [P-0203, N-propyl-4-(7H-pyrrolo[2,3-d]pyrimidin-4-yl)piperazine-1-carboxamide] and `O=C(Nc1ccccc1)N1CCN(c2ncnc3[nH]ccc23)CC1` [P-0205, N-phenyl-4-(7H-pyrrolo[2,3-d]pyrimidin-4-yl)piperazine-1-carboxamide] fall in the same range of IC50: 10 to 200 µM for the first, 10 to 200 µM for the second.

`CN(C)c1ccc(NC(=O)NC2CCN(c3ncnc4[nH]ccc34)CC2)cc1` [P-0506, 1-(4-dimethylaminophenyl)-3-[1-(7H-pyrrolo[2,3-d]pyrimidin-4-yl)-4-piperidyl]urea] and `O=C(Nc1ccc(Cl)cc1)NC1CCN(c2ncnc3[nH]ccc23)CC1` [P-0519, 1-(4-chlorophenyl)-3-[1-(7H-pyrrolo[2,3-d]pyrimidin-4-yl)-4-piperidyl]urea] fall in the same range of IC50: 10 to 200 µM for the first, 10 to 200 µM for the second.

First: COc1ccc(NC(=O)N2CCN(c3ncnc4[nH]ccc34)CC2)cc1OC [P-0173, N-(3,4-dimethoxyphenyl)-4-(7H-pyrrolo[2,3-d]pyrimidin-4-yl)piperazine-1-carboxamide]
Second: CN(C)c1ccc(NC(=O)N2CCN(c3ncnc4[nH]ccc34)CC2)cc1 [P-0132, N-(4-dimethylaminophenyl)-4-(7H-pyrrolo[2,3-d]pyrimidin-4-yl)piperazine-1-carboxamide]
The IC50 of the first is higher: 10 to 200 µM for the first, 1 to 10 µM for the second. The second is the more potent here.

`COc1cc(NC(=O)N2CCN(c3ncnc4[nH]cc(-c5ccccc5)c34)CC2)cc(OC)c1` [P-0216, N-(3,5-dimethoxyphenyl)-4-(5-phenyl-7H-pyrrolo[2,3-d]pyrimidin-4-yl)piperazine-1-carboxamide] and `O=C(Nc1ccccc1)c1cc2c(N3CCN(C(=O)NCc4ccc(F)cc4)CC3)ncnc2[nH]1` [P-0193, 4-[4-[(4-fluorophenyl)methylcarbamoyl]piperazin-1-yl]-N-phenyl-7H-pyrrolo[2,3-d]pyrimidine-6-carboxamide] fall in the same range of IC50: 10 to 200 µM for the first, 10 to 200 µM for the second.

`Fc1ccc(-c2cc3c(-c4cccnc4C(F)(F)F)ncnc3[nH]2)cc1` [P-0374, 6-(4-fluorophenyl)-4-[2-(trifluoromethyl)-3-pyridyl]-7H-pyrrolo[2,3-d]pyrimidine] and `O=C1CCCN1c1ccc(S(=O)(=O)NC2CCN(c3ncnc4[nH]c(-c5ccc(Cl)cc5)cc34)CC2)cc1` [P-0473, N-[1-[6-(4-chlorophenyl)-7H-pyrrolo[2,3-d]pyrimidin-4-yl]-4-piperidyl]-4-(2-oxopyrrolidin-1-yl)benzenesulfonamide] fall in the same range of IC50: 10 to 200 µM for the first, 10 to 200 µM for the second.

`O=C(Nc1ccccc1)NC1CCN(c2ncnc3[nH]ccc23)CC1` [P-0538, 1-phenyl-3-[1-(7H-pyrrolo[2,3-d]pyrimidin-4-yl)-4-piperidyl]urea] and `O=C(c1ccccc1)N1CCN(c2ncnc3[nH]ccc23)CC1` [P-0198, phenyl-[4-(7H-pyrrolo[2,3-d]pyrimidin-4-yl)piperazin-1-yl]methanone] fall in the same range of IC50: 10 to 200 µM for the first, 10 to 200 µM for the second.

`O=S(=O)(c1ccccc1)N1CCN(c2ncnc3[nH]ccc23)CC1` [P-0200, 4-[4-(benzenesulfonyl)piperazin-1-yl]-7H-pyrrolo[2,3-d]pyrimidine] and `Cc1ccccc1C(=O)c1c[nH]c2ncnc(N3CCN(c4cc(NC5CC5)ncn4)CC3)c12` [P-0206, [4-[4-[6-(cyclopropylamino)pyrimidin-4-yl]piperazin-1-yl]-7H-pyrrolo[2,3-d]pyrimidin-5-yl]-(o-tolyl)methanone] fall in the same range of IC50: 10 to 200 µM for the first, 10 to 200 µM for the second.

biological target: T2, c-kit mutant D816V (Homo sapiens, UniProt P10721, D816V/DEL694-753); assay: c-Kit mutant D816V biochemical assay, AlphaScreen; settings: c-kit D816V biochemical inhibitory activity; read-out: Biochemical activity (IC50 μM) Kit D816V
T2 construct: residues 551-934, kinase insertion domain residues 694-753 deleted; 6x-histidine (N); made in house; host or cells: E. coli Arctic Express (DE3) RIL (Stratagene)
Summary of the method: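 Purified His-tagged c-Kit D816V (E. coli-expressed) assayed in 25 mM HEPES pH 7.2 with Mg/Mn, 5% DMSO and 10 μM ATP, 30 min at room temperature, 8-point 1:3 dilutions. Phosphorylation detected by AlphaScreen with streptavidin donor and PY20 acceptor beads; IC50 from signal versus concentration.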

T2 sequence (P10721 with tags, fused parts or gaps DEL694-753/D816V): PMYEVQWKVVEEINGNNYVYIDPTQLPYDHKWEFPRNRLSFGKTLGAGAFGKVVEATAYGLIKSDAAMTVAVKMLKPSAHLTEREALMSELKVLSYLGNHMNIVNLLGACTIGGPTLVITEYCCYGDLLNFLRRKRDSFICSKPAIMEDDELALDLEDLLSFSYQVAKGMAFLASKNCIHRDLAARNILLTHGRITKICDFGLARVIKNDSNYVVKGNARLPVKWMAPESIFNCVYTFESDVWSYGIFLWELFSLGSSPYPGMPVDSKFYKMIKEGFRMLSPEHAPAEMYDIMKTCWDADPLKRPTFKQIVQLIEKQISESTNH

Compared with `O=C(NCc1cccc(OC(F)F)c1)N1CCN(c2ncnc3[nH]c(-c4ccc(F)cc4)cc23)CC1` [P-0073, N-[[3-(difluoromethoxy)phenyl]methyl]-4-[6-(4-fluorophenyl)-7H-pyrrolo[2,3-d]pyrimidin-4-yl]piperazine-1-carboxamide], `C[C@@H](NC(=O)N1CCN(c2ncnc3[nH]c(-c4ccc(F)cc4)cc23)CC1)c1ccc(F)cc1` [P-0146, N-[(1R)-1-(4-fluorophenyl)ethyl]-4-[6-(4-fluorophenyl)-7H-pyrrolo[2,3-d]pyrimidin-4-yl]piperazine-1-carboxamide] is higher in IC50: 1 to 10 µM for the first, 10 to 200 µM for the second. The first is the more potent here.

Compared with `C[C@H](NC(=O)N1CCN(c2ncnc3[nH]c(-c4ccc(C#N)cc4)cc23)CC1(C)C)c1ccc(Cl)cc1` [P-0686, N-[(1S)-1-(4-chlorophenyl)ethyl]-4-[6-(4-cyanophenyl)-7H-pyrrolo[2,3-d]pyrimidin-4-yl]-2,2-dimethyl-piperazine-1-carboxamide], `COc1cc(-c2cc3c(N4CCC(NS(=O)(=O)c5ccc(Cl)cc5)CC4)ncnc3[nH]2)ccn1` [P-0666, 4-chloro-N-[1-[6-(2-methoxy-4-pyridyl)-7H-pyrrolo[2,3-d]pyrimidin-4-yl]-4-piperidyl]benzenesulfonamide] is lower in IC50: 10 to 200 µM for the first, 0.0001 to 1 µM for the second. The second is the more potent here.

First: Cc1cc2c(N3CCC(NS(=O)(=O)c4ccc(OC(F)F)cc4)CC3)ncnc2[nH]1 [P-0656, 4-(difluoromethoxy)-N-[1-(6-methyl-7H-pyrrolo[2,3-d]pyrimidin-4-yl)-4-piperidyl]benzenesulfonamide]
Second: COc1ccc(S(=O)(=O)NC2CCN(c3ncnc4[nH]c(-c5cnn(C)c5)cc34)CC2)cc1 [P-0496, 4-methoxy-N-[1-[6-(1-methylpyrazol-4-yl)-7H-pyrrolo[2,3-d]pyrimidin-4-yl]-4-piperidyl]benzenesulfonamide]
The IC50 of the first is higher: 10 to 200 µM for the first, 0.0001 to 1 µM for the second. The second is the more potent here.

First: CCNS(=O)(=O)c1ccc(-c2ncnc3[nH]c(-c4ccc(F)cc4)cc23)cc1 [P-0422, N-ethyl-4-[6-(4-fluorophenyl)-7H-pyrrolo[2,3-d]pyrimidin-4-yl]benzenesulfonamide]
Second: O=S(=O)(Nc1ccc(-c2ncnc3[nH]c(-c4ccc(F)cc4)cc23)c(F)c1)N1CCCC1 [P-0400, N-[3-fluoro-4-[6-(4-fluorophenyl)-7H-pyrrolo[2,3-d]pyrimidin-4-yl]phenyl]pyrrolidine-1-sulfonamide]
The IC50 of the first is higher: 10 to 200 µM for the first, 1 to 10 µM for the second. The second is the more potent here.

`O=C(Nc1ccc(F)c(Cl)c1)NC1CCN(c2ncnc3[nH]ccc23)CC1` [P-0512, 1-(3-chloro-4-fluoro-phenyl)-3-[1-(7H-pyrrolo[2,3-d]pyrimidin-4-yl)-4-piperidyl]urea] and `O=S(=O)(Nc1cccc(-c2ncnc3[nH]c(-c4cnc(C5CC5)nc4)cc23)c1)C1CC1` [P-0383, N-[3-[6-(2-cyclopropylpyrimidin-5-yl)-7H-pyrrolo[2,3-d]pyrimidin-4-yl]phenyl]cyclopropanesulfonamide] fall in the same range of IC50: 10 to 200 µM for the first, 10 to 200 µM for the second.
